{"source": "patent US20250195628A1", "about": "“ANALYTICAL METHOD AND THERAPEUTICAL AGENT FOR USE IN COMBINATION WITH L-ASPARAGINASE IN TUMOUR THERAPY” (Medizinische Hochschule Hannover, priority 2022, published 2025)", "key": {"[1]": {"tested_on": "Cas9-expressing Jurkat cells", "assay": "Cell viability after UBR2 knock-out by sgRNA and L-asparaginase treatment, Jurkat", "type": "cell-based, human", "settings": "100 U/L L-asparaginase, 48 h, versus sgAAVS1, FIG. 4A", "procedure": "(§1) Cas9-expressing Jurkat cells or T-ALL cells (CCRF-CEM) were treated with sgRNA that specifically knocked-out UBR2 (sgUBR2 #3, […], SEQ ID NO: 3) or control sgRNA directed against the safe harbor control locus AAVS1 (sgAAVS1, 5′-[…]-3′, SEQ ID NO: 4), and after knock-out of UBR2 cells were incubated under cell-culture conditions with 100 U/L L-asparaginase (Asp) or PBS as control agent (Vehicle). Cell viability was analysed by Trypan blue exclusion after 48 h of incubation.\n(§2) FIG. 4A for Jurkat cells, FIG. 4B for the T-ALL cells depict the cell viability normalized to the cell viability for Vehicle. […] P-values reflect the comparison of control inhibitor (AAVS1) and inhibitor of UBR2 (sgUBR2), calculated using a two-way ANOVA with Sidak's adjustments for multiple comparisons."}, "[2]": {"tested_on": "T-ALL cells (CCRF-CEM)", "assay": "Cell viability after UBR2 knock-out by sgRNA and L-asparaginase treatment, CCRF-CEM", "type": "cell-based, human", "settings": "100 U/L L-asparaginase, 48 h, versus sgAAVS1, FIG. 4B", "procedure": "as §1, §2"}}, "data": [{"substance": "sgUBR2 #3: sgRNA that specifically knocked-out UBR2, GAAACTTGAAATAGTCTAAA, SEQ ID NO: 3 (listed as DNA, chemistry not given here)", "values": [{"measurement": "effect on sensitivity for L-asparaginase (cell viability normalized to Vehicle)", "setting": "[1]", "result": "increased the sensitivity"}, {"measurement": "effect on sensitivity for L-asparaginase (cell viability normalized to Vehicle)", "setting": "[2]", "result": "increased the sensitivity"}]}]}
